Tests used:
[1] = test system: Trypanosoma cruzi epimastigotes CL Brener strain clone B5 (CL-B5); test: Epimastigote susceptibility assay, CL-B5 clone (β-galactosidase activity, CPRG); format: cell-based; conditions: for Epimastigotes CL-B5 Clone SI: NCTC-929 cytotoxicity / epimastigote IC50; for Epimastigotes CL-B5 Clone PNFX (nifurtimox IC50/compound IC50) / IC50: epimastigotes, CL-B5 clone; for IC50: 72 h at 28 °C, β-galactosidase readout, mean ± SEM
Method: (§1) For in vitro studies, the strains MHOM/CO/04/MG (MG), MHOM/CO/05/JEM (JEM) and CL Brener strain clone B5 (CL-B5) were used. The MG and JEM strains correspond to Group I and Haplotype Ia isolates from two Colombian patients in the acute phase, and CL-B5 is a strain stably transfected with Escherichia coli β-galactosidase gene (lacZ). Epimastigotes were grown in plastic culture flasks at 28 °C, in axenic liver-infusion tryptose (LIT) growth medium, supplemented with 10% heat inactivated (30 min at 56 °C) foetal calf serum (FCS; Sigma), […] hemin (Sigma), and 10 µg/mL gentamycin (Sigma) and harvested in the exponential phase for conducting the experiments. Cultures were continuously maintained in logarithmic growth by weekly passages.
Trypanocidal activity against CL-B5 strain was also assessed by measuring β-galactosidase activity. Briefly, log-phase epimastigotes were seeded in 96-well microplates at a density of 2.5 × 10^5 parasites/mL in a final volume of 200 μL/well and incubated within the compounds for 72 h at 28 °C. Afterwards, 50 μL of the β-galactosidase substrate chlorophenol red β-D-galactopyranoside (CPRG, Roche) in 0.9% Triton X-100 (Panreac) solution were added to each well (200 μM, pH 7.4) and the plates incubated at 37 °C for 3 h. Anti-epimastigote activity was estimated by reading absorbance at 595 nm. Each concentration was assayed by triplicate, in three independent experiments. […] In all spectrophotometric assays, anti-epimastigote activity percentages were calculated as (OD control wells − OD experimental wells) ×100/OD control wells.
(§2) Furthermore the Selectivity Index (SI = mammalian cell LC50/epimastigote IC50) for each compound was calculated to compare the antiprotozoal activity with its respective mammalian cell cytotoxicity.

[2] = test system: Trypanosoma cruzi amastigotes CL-B5 clone; test: Amastigote susceptibility assay, CL-B5 clone in NCTC-929 fibroblasts (CPRG); format: cell-based; conditions: for Amastigotes CL-B5 Clone SI: NCTC-929 cytotoxicity / amastigote IC50; for IC50: intracellular amastigotes in NCTC-929 fibroblasts, 7 days, mean ± SEM
Method: For the anti-amastigote assays, axenic cultures of epimastigotes reaching their stationary phase of growth (14 day-old cultures) were used to infect non-confluent monolayers of NCTC-929 fibroblasts to obtain tissue culture derived trypomastigotes (TCT). After 24 h at 33 °C in a humidified 5% CO2 atmosphere, the infected cultures were washed with phosphate buffer saline (PBS) to removed non-penetrated epimastigotes. TCT were harvested from the supernatant of the cultures after one week of incubation in these conditions of temperature and humidity.
For this assay, 120 μL of BME containing 10,000 NCTC-929 fibroblasts/well were seeded in 48-well plates (Costar) and after their attachment, infected with TCT obtained as above in a 1:6 cell-parasite ratio. The plates were incubated at 33 °C and 5% CO2 overnight and after the infection, experimental wells were washed with PBS to eliminate non-penetrated TCT. […] Then, 50 μL of a CPRG solution in 3% Triton X-100 (pH 7.4) were added to each well in a final concentration of 400 μM and the plates incubated 3 h at 37 °C. Finally, anti-amastigote activity was estimated by reading absorbance at 595 nm in a plate reader (Infinite 200, Tecan) and calculated as in Fonseca-Berzal et al.. IC50 and NI indexes were calculated as above.

J774.2 macrophages = test: in vitro; conditions: for CC50: read-out: Macrophages LC50, J774.2 macrophages, 72 h, mean ± SEM
Method: (§3) The mouse cell lines J774.2 macrophages and NCTC clone 929 fibroblasts were used and cultured in plastic culture flasks. J774.2 and NCTC-929 cells were grown using DMEM and BME without phenol-red, respectively. Both media were supplemented with 10% heat inactivated fetal calf serum, 2 mM glutamine, 100 U/mL penicillin and 100 μg/mL streptomycin. Cell cultures were maintained at 37 °C in a humidified atmosphere containing 5% CO2 and subpassaged once a week. Cells in the pre-confluence phase were harvested with an EDTA-trypsin solution for the experiments.
(§4) Unspecific cytotoxicity was evaluated over phagocytic macrophages J774.2 cell line. To study cytotoxicity on J774.2 cells, 200 μL of a suspension of 2 × 10^5 macrophages/mL were added to 96 well flat-bottom microplates (Sigma). Cells were allowed to attach for 24 h at 37 °C and then exposed to the compounds for 72 h at the same concentrations as used for drug screening. […] Each concentration was assayed by triplicate, in independent experiments. Cytotoxicity was assessed by the Trypan Blue and XTT techniques and LC50 was calculated as described above.

[3] = test system: Trypanosoma cruzi epimastigotes strain MG (MHOM/CO/04/MG); test: Epimastigote susceptibility assay, MG strain (Trypan Blue and XTT); format: cell-based; conditions: for MG Strain SI (Selectivity Index: LC50-macrophages/IC50-epimastigotes): MG strain epimastigotes vs J774.2 macrophages; for MG Strain PNFX (potency relative to NFX = IC50-NFX/IC50-compound; also called NI) / IC50: epimastigotes, MG strain; for IC50: 72 h at 28 °C, 0.1-70.0 µM, mean ± SEM
Method: as §1
(§5) Three different strains of T. cruzi were used for the primary screening on epimastigote forms. For strains MG and JEM, the screening assay was performed with approximately 1 × 10^5 epimastigotes in logaritmic growth phase in 200 μL of supplemented LIT medium per well in 96-well flat bottoned plates (Costar, Corning, Cornig, NY, USA). […] The plates were incubated for 72 h at 28 °C and all experimental conditions were evaluated in triplicate in three independent experiments. The epimastigote growth inhibition was microscopically determined by the Trypan Blue dye exclusion assay and XTT (2,3-bis-(2-methoxy-4-nitro-5-sulfophenyl)-5-[(phenylamino)carbonyl]-2H-tetrazolium hydroxide). Regarding the first method, an aliquot from every culture was suspended in 0.4% trypan blue solution for 5 min and cell viability was determined under microscope by counting live parasites in each condition in a Neubauer chamber. Anti-epimastigote activity percentage was calculated as (Parasite counts in control wells-Parasite counts in experimental wells) × 100/Parasite counts in control wells. Trypanocidal activity over both strains was also measured adding 50 μL of XTT solution per well to obtain a final concentration of 0.3 mg/mL. The plate was re-incubated 24 h in the dark at 37 °C and orange formazan solution formed, was spectrophotometrically quantified at 450 nm with a 630 nm reference filter, using an Ear400FT ELISA reader.
as §2

[4] = test system: Trypanosoma cruzi epimastigotes strain JEM (MHOM/CO/05/JEM); test: Epimastigote susceptibility assay, JEM strain (Trypan Blue and XTT); format: cell-based; conditions: for JEM Strain SI (Selectivity Index: LC50-macrophages/IC50-epimastigotes): JEM strain epimastigotes vs J774.2 macrophages; for JEM Strain PNFX (potency relative to NFX = IC50-NFX/IC50-compound; also called NI) / IC50: epimastigotes, JEM strain; for IC50: 72 h at 28 °C, 0.1-70.0 µM, mean ± SEM
Method: as §1, §5, §2

NCTC-929 fibroblasts = test: in vitro; format: cell-based; conditions: NCTC-929 fibroblasts, 48 h, resazurin, mean ± SEM; read-out: Cytotoxicity NCTC-929 LC50
Method: (§6) NCTC-929 cells were placed in triplicate in 96-well microtitre plates at 15 × 10^3 cells per well in 100 µL of MEM supplemented with FBS and antibiotics. The cells were grown overnight at 37 °C in 5% CO2. Thereafter, the medium was removed and the compounds were added in 200 µL of medium and plates were incubated 48 h at 37 °C in 5% CO2. After incubation, 20 µL of 2 mM resazurin (Sigma) solution was added to each well. The plates were incubated for 3 h and metabolic activity was measured by fluorimetric readings taken in a plate fluorometer (Infinite 200, TECAN, Mannedorf, Switzerland) at λexcitation 535 nm and λemission 590 nm, according to the Alamar blue® Assay.

in vitro [5] = conditions: mouse
Method: as §3, §4

in vitro [6] = format: cell-based; conditions: mouse
Method: as §6

[7] = Trypanosoma cruzi, NCTC929, 168 h

Compound	Epimastigotes CL-B5 Clone SI [1]	Epimastigotes CL-B5 Clone PNFX (nifurtimox IC50/compound IC50) [1]	IC50 [1] [µM]	Amastigotes CL-B5 Clone SI [2]	Amastigotes CL-B5 Clone PNFX (nifurtimox IC50/compound IC50) [2]	IC50 [2] [µM]	CC50 (J774.2 macrophages) [µM]	MG Strain SI (Selectivity Index: LC50-macrophages/IC50-epimastigotes) [3]	MG Strain PNFX (potency relative to NFX = IC50-NFX/IC50-compound; also called NI) [3]	IC50 [3] [µM]	JEM Strain SI (Selectivity Index: LC50-macrophages/IC50-epimastigotes) [4]	JEM Strain PNFX (potency relative to NFX = IC50-NFX/IC50-compound; also called NI) [4]	IC50 [4] [µM]	CC50 (NCTC-929 fibroblasts) [µM]	IC50 ([1]; Trypanosoma cruzi) [µM]	IC50 [2, 7] [µM]	CC50 at 72 h (in vitro [5]) [µM]	IC50 ([3]; Trypanosoma cruzi, 72 h) [µM]	IC50 ([4]; Trypanosoma cruzi, 72 h) [µM]	CC50 at 48 h (in vitro [6]) [µM]	other results
2-(tert-Butoxycarbonyl)-dodecan-1,2-diamine [Compound 14]	11.8	4.2	2.5 ± 0.03	9.9	0.2	3 ± 0.21	47.1 ± 0.35	4.4	2.0	10.8	3.3	1.0	14.5 ± 0.05	29.6 ± 0.01	–	–	–	–	–	–	–
2-tert-Butoxycarbonyl-hexadecan-1,2-diamine [Compound 15]	10.6	4.3	2.4 ± 0.01	9.8	0.2	2.6 ± 0.23	48.1 ± 0.15	4.0	1.8	12 ± 2.15	2.4	0.7	20.4 ± 0.3	25.6 ± 0.06	–	–	–	–	–	–	–
CCCCCCCCCCCCCCC(N)CO (stereo not drawn) [Compound 2, 2-Aminohexadecanol]	7.2	3.0	–	14.0	0.3	–	–	3.3	0.9	–	26	4.9	–	–	3.5 ± 0.01	1.8 ± 0.12	77.8 ± 0.35	23.7 ± 3.15	3 ± 1.5	25.2 ± 0.12	–
CCCCCCCCCCCCCCC(CO)NCC (stereo not drawn) [Compound 5, 2-(Ethylamino)hexadecanol]	9.8	3.1	–	54	1.0	–	–	2.0	1.0	–	2.3	0.8	–	–	3.3 ± 0.1	0.6 ± 0.25	43.4 ± 0.5	21.6 ± 2.95	19.3 ± 1.35	32.4 ± 0.02	–
CCCCCCCCCCCCCCC(CO)NCCCC (stereo not drawn) [Compound 6, 2-(Butylamino)hexadecanol]	22.7	2.5	–	47.8	0.3	–	–	–	6.6	–	–	5.3	–	–	4.2 ± 0.52	2 ± 0.27	63.9 ± 3.5	3.2 ± 0.2	2.8 ± 0.75	95.6 ± 1.19	times less toxic than NFX (J774.2 macrophages; macrophages LC50 relative to NFX): 1.3

Source: article PMC6272662, “Trypanocidal Activity of Long Chain Diamines and Aminoalcohols” (Molecules, 2015)
